Measured values reported in patent US20200157088A1, “BENZENE FUSED HETEROCYCLIC COMPOUND AND USE THEREOF” (TAIWANJ PHARMACEUTICALS CO., LTD., priority 2017, published 2020).

Biological target: T1, autotaxin (Homo sapiens, UniProt Q13822)
T1 construct: purchased Cayman 10803
Assay: Autotaxin inhibitor screening assay (choline release from LPC)
Format: biochemical
Details: inhibition of autotaxin enzyme activity at 1 μM compound; 100 μM 14:0 LPC; read-out: Inhibition
Protocol: Autotaxin activity was measured by choline release from LPC in presence or absence of compound.
Twenty (20) ng autotaxin (10803, Cayman, MI, USA) was incubated with 100 μM 14:0 LPC (855575P, Avanti, AL, USA) in a final volume of 100 μL buffer containing 50 mM Tris pH 8.0, 0.01% Triton X-100, 50 mM CaCl2, 1 unit/ml choline oxidase, 2 unit/ml HRP, 2 mM homovanilic acid (HVA). The relative amount of released choline was measured by HVA fluorescence in a 96-well plate. Fluorescent intensity was determined at λex/λem=320/450 nm every 60 seconds for 90 minutes with a SpectraMax i3 (Molecular Devices, CA, USA). Data analysis was performed using GraphPad Prism (GraphPad, La Jolla Calif., USA).
Inhibition %=[1−SlopeTA−SlopeBlank)/(Slopevehicle−SlopeBlank)]×100%

## CN(C(=O)OCc1cc(Cl)cc(Cl)c1)C1CCc2ccc(C3=CCN(CC(=O)N4CC[C@@H](O)C4)CC3)cc21 (stereo partly shown) [Compound 12]
  inhibition at 1 µM: 50 to 80%

## CN(c1nc(-c2ccc(F)cc2)cs1)C1CCc2ccc(N3CCN(CC(=O)N4CC(O)C4)CC3)cc21 (stereo not shown) [Compound 43, 2-(4-(3-((4-(4-fluorophenyl)thiazol-2-yl)(methyl)amino)-2,3-dihydro-1H-inden-5-yl)piperazin-1-yl)-1-(3-hydroxyazetidin-1-yl)ethan-1-one]
  inhibition at 1 µM: < 50%

## CN(C(=O)OCc1cc(Cl)cc(Cl)c1)C1CCc2ccc(C3=CCN(CC(=O)N4CCS(=O)(=O)CC4)CC3)cc21 (stereo not shown) [Compound 16]
  inhibition at 1 µM: 50 to 80%

## CN(C(=O)OCc1cc(Cl)cc(Cl)c1)C1CCc2ccc(C3=CCN(C(=O)CN4CCN(S(C)(=O)=O)CC4)CC3)cc21 (stereo not shown) [Compound 25]
  inhibition at 1 µM: > 80%

## COc1cc(C2=CCN(C(=O)CN3C(=O)CSC3=S)CC2)cc2c(N(C)C(=O)OCc3cc(C(F)(F)F)cc(C(F)(F)F)c3)coc12 [Compound 112]
  inhibition at 1 µM: > 80%

## CCC1Cc2ccc(C3=CCN(CC(=O)N4CC(O)C4)CC3)cc2C1N(C)c1nc(-c2cc(Cl)cc(Cl)c2)c(C#N)s1 (stereo not shown) [Compound 61]
  inhibition at 1 µM: < 50%

## CN(C(=O)OCc1cc(Cl)cc(Cl)c1)C1CCc2ccc(C3=CCN(C(=O)N4CCN(S(C)(=O)=O)C4=O)CC3)cc21 (stereo not shown) [Compound 139]
  inhibition at 1 µM: < 50%

## CN(c1nc(-c2ccc(F)cc2)c(C#N)s1)C1CCCc2ccc(N3CCN(CC(=O)N4CC(O)C4)CC3)cc21 (stereo not shown) [Compound 53]
  inhibition at 1 µM: < 50%

## CN(C(=O)OCc1cc(Cl)cc(Cl)c1)C1CCc2ccc(C3=CCN(C(=O)C(=O)N4CCOCC4)CC3)cc21 (stereo not shown) [Compound 23]
  inhibition at 1 µM: 50 to 80%

## CN(C(=O)OCc1cc(Cl)cc(Cl)c1)C1CCc2ccc(C3=CCN(C(=O)CN4C(=O)C=CC4=O)CC3)cc21 (stereo not shown) [Compound 27]
  inhibition at 1 µM: > 80%

## Cc1cc(COC(=O)N(C)C2CCc3ccc(C4=CCN(C(=O)CN5C(=O)CSC5=S)CC4)cc32)cc(C(F)(F)F)c1 (stereo not shown) [Compound 94]
  inhibition at 1 µM: > 80%

## N#Cc1cn(Cc2coc3ccc(C4=CCN(CC(=O)N5CC(O)C5)CC4)cc23)nc1-c1ccc(Cl)cc1 [Compound 82, 3-(4-chlorophenyl)-1-((5-(1-(2-(3-hydroxyazetidin-1-yl)-2-oxoethyl)-1,2,3,6-tetrahydropyridin-4-yl)benzofuran-3-yl)methyl)-1H-pyrazole-4-carbonitrile]
  inhibition at 1 µM: < 50%

## CN(C(=O)OCc1cc(C(F)(F)F)cc(C(F)(F)F)c1)C1CCc2ccc(C3=CCN(C(=O)CN4C(=O)CSC4=S)CC3)cc21 (stereo not shown) [Compound 95]
  inhibition at 1 µM: > 80%

## CCN(C(=O)OCc1cc(Cl)cc(Cl)c1)c1noc2ccc(C3=CCN(C(=O)CN4C(=O)CSC4=S)CC3)cc12 [Compound 129]
  inhibition at 1 µM: 50 to 80%

## CN(C(=O)OCc1cc(Cl)cc(Cl)c1)C1CCc2ccc(C3=CCN(C(=O)CCN4C(=O)CSC4=S)CC3)cc21 (stereo not shown) [Compound 28]
  inhibition at 1 µM: 50 to 80%

## CC1Cc2ccc(C3=CCN(C(=O)CN4C(=O)CSC4=S)CC3)cc2C1N(C)C(=O)OCc1cc(Cl)cc(Cl)c1 (stereo not shown) [Compound 117]
  inhibition at 1 µM: > 80%

## CCN(CC)C(=O)CN1CC=C(c2ccc3c(c2)C(N(C)C(=O)OCc2cc(Cl)cc(Cl)c2)CC3)CC1 (stereo not shown) [Compound 14]
  inhibition at 1 µM: < 50%

## O=C(Nc1noc2ccc(C3=CCN(C(=O)CN4C(=O)CSC4=S)CC3)cc12)OCc1cc(C(F)(F)F)cc(C(F)(F)F)c1 [Compound 131]
  inhibition at 1 µM: 50 to 80%

## CN(C(=O)OCc1cc(Cl)cc(Cl)c1)C1CCc2ccc(N3CCN(CC(=O)N4CC(O)C4)CC3)cc21 (stereo not shown) [Compound 33, 3,5-dichlorobenzyl (6-(4-(2-(3-hydroxyazetidin-1-yl)-2-oxoethyl)piperazin-1-yl)-2,3-dihydro-1H-inden-1-yl)(methyl)carbamate]
  inhibition at 1 µM: 50 to 80%
